Data on twelve compounds can be found in patent publication US20130184257A1, “PIPERIDINYL-SUBSTITUTED LACTAMS AS GPR119 MODULATORS” (priority 2010, published 2013).

The test system of this assay is modified version of the GPR119 receptor (94% identity to human receptor) stably expressed in HEK-293 cells. Kind of assay: cAMP Production Assay (LANCE cAMP kit, TR-FRET). In kind it is cell-based. Particulars: for cAMP production in HEK-293 cells: HEK-293 cells expressing modified GPR119, test compounds 0.2 nM to 10 μM, one-hour incubation at ambient temperature; for Fold over baseline: increase in cAMP relative to basal levels, 1.5-fold or greater = agonist activity. The gist of the method: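 Doxycycline-induced (1 μg/mL, overnight) HEK-293 cells expressing modified GPR119 were thawed, 2000 cells/well, and exposed to compounds (0.2 nM-10 μM final, 0.5% DMSO) for 1 h at ambient temperature in HBSS/HEPES/BSA. cAMP was measured by LANCE TR-FRET against a standard curve. Agonism was defined as ≥1.5-fold over basal.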
(In general: Time-resolved FRET reads energy transfer from a long-lived donor to a nearby acceptor.)

For the compound `CCc1noc(N2CCC(N3CC[C@H](Oc4ccc(S(C)(=O)=O)cc4F)C3=O)CC2)n1` [Example 6, (S)-1-(1-(3-ethyl-1,2,4-oxadiazol-5-yl)piperidin-4-yl)-3-(2-fluoro-4-(methylsulfonyl)phenoxy)pyrrolidin-2-one], the “cAMP production in HEK-293 cells” value came to 22.5 nmol and the Fold over baseline was 4.9.

Take `CS(=O)(=O)c1ccc(N[C@H]2CCN(C3CCN(c4noc(C5(C(F)(F)F)CC5)n4)CC3)C2=O)c(F)c1` [Example 46, (S)-3-(2-fluoro-4-(methylsulfonyl)-phenylamino)-1-(1-(5-(1-(trifluoromethyl)-cyclopropyl)-1,2,4-oxadiazol-3-yl)piperidin-4-yl)pyrrolidin-2-one]: the “cAMP production in HEK-293 cells” value is 8.2 nmol and the Fold over baseline was 2.7.

For `CC(C)c1noc(N2CCC(N3CCC[C@H](Nc4ccc(S(C)(=O)=O)cc4F)C3=O)CC2)n1` [Example 7, (S)-3-(2-fluoro-4-(methylsulfonyl)phenylamino)-1′-(3-isopropyl-1,2,4-oxadiazol-5-yl)-1,4′-bipiperidin-2-one], the “cAMP production in HEK-293 cells” value is 27.8 nmol and the Fold over baseline was determined as 5.7.

As to `CC(F)(F)c1nc(N2CCC(N3CC[C@H](Nc4c(F)cc(S(C)(=O)=O)cc4F)C3=O)CC2)no1` [Example 65, (S)-3-((2,6-difluoro-4-(methylsulfonyl)phenyl)amino)-1-(1-(5-(1,1-difluoroethyl)-1,2,4-oxadiazol-3-yl)piperidin-4-yl)pyrrolidin-2-one], the “cAMP production in HEK-293 cells” value is 16.1 nmol and the Fold over baseline is 2.6.

Turning to `CS(=O)(=O)c1cc(F)c(O[C@H]2CCN(C3CCN(c4noc(-c5ccccc5)n4)CC3)C2=O)cc1F` [Example 17, (S)-3-(2,5-difluoro-4-(methylsulfonyl)phenoxy)-1-(1-(5-phenyl-1,2,4-oxadiazol-3-yl)piperidin-4-yl)pyrrolidin-2-one], the “cAMP production in HEK-293 cells” value came out at 28.3 nmol and the Fold over baseline amounted to 4.8.

Take `CS(=O)(=O)c1ccc(N[C@H]2CCN(C3CCN(c4noc(C(F)F)n4)CC3)C2=O)cn1` [Example 58]: the “cAMP production in HEK-293 cells” value worked out at 15.8 nmol and the Fold over baseline is on record as 2.6.

As for `CC(C)c1nc(N2CCC(N3CC[C@H](Oc4ccc(S(C)(=O)=O)cc4F)C3=O)CC2)no1` [Example 18, (S)-3-(2-fluoro-4-(methylsulfonyl)phenoxy)-1-(1-(5-isopropyl-1,2,4-oxadiazol-3-yl)piperidin-4-yl)pyrrolidin-2-one], the “cAMP production in HEK-293 cells” value was determined as 19.4 nmol and the Fold over baseline worked out at 3.7.

As to `CC(C)c1nc(N2CCC(N3CCC[C@H](Nc4c(F)cc(S(C)(=O)=O)cc4F)C3=O)CC2)no1` [Example 12, (S)-3-(2,6-difluoro-4-(methylsulfonyl)phenylamino)-1′-(5-isopropyl-1,2,4-oxadiazol-3-yl)-1,4′-bipiperidin-2-one], the “cAMP production in HEK-293 cells” value is 16.1 nmol and the Fold over baseline was 3.4.

In the case of `CS(=O)(=O)c1cc(F)c(N[C@H]2CCN(C3CCN(c4nc(C(F)(F)F)no4)CC3)C2=O)c(F)c1` [Example 60, (S)-3-((2,6-difluoro-4-(methylsulfonyl)phenyl)amino)-1-(1-(3-(trifluoromethyl)-1,2,4-oxadiazol-5-yl)piperidin-4-yl)pyrrolidin-2-one], the “cAMP production in HEK-293 cells” value is 18.1 nmol and the Fold over baseline is on record as 3.8.

`CC(C)c1nc(N2CCC(N3CC[C@H](Nc4ccc(S(C)(=O)=O)cc4F)C3=O)CC2)no1` [Example 15, (S)-3-(2-fluoro-4-(methylsulfonyl)phenylamino)-1-(1-(5-isopropyl-1,2,4-oxadiazol-3-yl)piperidin-4-yl)pyrrolidin-2-one]: the “cAMP production in HEK-293 cells” value stood at 20.8 nmol and the Fold over baseline was 3.8.

For `CC(F)(F)c1nc(N2CCC(N3CC[C@H](Nc4ccc(S(C)(=O)=O)cc4F)C3=O)CC2)no1` [Example 49, (S)-1-(1-(5-(1,1-difluoroethyl)-1,2,4-oxadiazol-3-yl)piperidin-4-yl)-3-(2-fluoro-4-(methylsulfonyl)phenylamino)pyrrolidin-2-one], the “cAMP production in HEK-293 cells” value was 20.8 nmol and the Fold over baseline worked out at 2.7.

`CS(=O)(=O)c1cc(F)c(N[C@H]2CCN(C3CCN(c4nc(C(F)(F)F)no4)CC3)C2=O)cc1F` [Example 59, (S)-3-((2,5-difluoro-4-(methylsulfonyl)phenyl)amino)-1-(1-(3-(trifluoromethyl)-1,2,4-oxadiazol-5-yl)piperidin-4-yl)pyrrolidin-2-one]: the “cAMP production in HEK-293 cells” value was determined as 25.7 nmol and the Fold over baseline is 3.9.
